Tests used:
[1] = system: mitochondrial redistribution of eNOS; assay: Immunofluorescent microscopy of eNOS mitochondrial redistribution in PAEC; type: cell-based, ovine; conditions: PMA
Protocol: (§1) Primary cultures of ovine pulmonary arterial endothelial cells (PAEC) were isolated as described previously (L. K. Kelly, Am J Physiol Lung Cell Mol Physiol, 286(5), L984-91 (2004)). Briefly, cells were maintained in Dulbecco's modified Eagle medium (DMEM) supplemented with 10% fetal calf serum (Hyclone, Logan, UT), antibiotics/antimycotic (500 IU Penicillin, 500 μg/ml Streptomycin, 1.25 μg/ml Amphotericin B; MediaTech, Herndon, VA) at 37° C. in a humidified atmosphere with 5% CO2 and 95% air. Cells were used for experiments between passages 9-14, seeded at ˜50% confluence, and utilized when fully confluent.
PAEC were grown on cover glass for three days after reaching 100% confluence, and fixed with 4% paraformaldehyde (Thermo Fisher Scientific) for 30 min, permeabilized with 100% cold methanol at −20° C. for 5 min Cell then blocked with 1% BSA for 1 hour, and later incubated with first antibody overnight at 4° C. then secondary antibody at room temperature for 1 hour. Finally, cells were mounted on microscope slides using ProLong Glass Antifade Mountant, (Invitrogen, Carlsbad, CA, Cat #P36980). […] The images were analyzed with ImagePro Plus 7.0 (W. Casavan, Microscopy Today, 11(6), 48-50 (2003)) or ImageJ software to evaluate the colocalization of fluorescent.

PAEC = assay: Mitochondrial bioenergetics (XF24 Analyzer, OCR) in PAEC; type: cell-based, ovine; conditions: PMA
Protocol: as §1
The XF24 Analyzer (Seahorse Biosciences) and XF CELL MITO STRESS™ Test Kit (#101706-100; Seahorse Biosciences) were used for the mitochondrial bioenergetic analyses. The optimum number of cells/well was determined to be 75,000/0.32 cm^2. At the end of each study, the XF24 culture microplates were incubated in a CO2-free XF prep station at 37° C. for 45 min to allow temperature and pH calibration. Subsequently, each well was sequentially injected Oligomycin (1 μM final concentration), carbonyl cyanide 4-(trifluoromethoxy) phenylhydrazone (FCCP, 1 μM final concentration), and Rotenone+antimycin A (1 μM final concentration of each) and measured the oxygen consumption rate (OCR). These agents were used to determine basal mitochondrial respiration, reserve respiratory capacity and maximal respiratory capacity measurements in pmols/min of oxygen consumed.

NOS-derived superoxide = NOS-derived superoxide by EPR (eNOS uncoupling) in PAEC; type: cell-based, ovine; conditions: PMA
Protocol: as §1
Superoxide levels were estimated by electron paramagnetic resonance (EPR) assay using the spin-trap compound 1-hydroxy-3-methoxycarbonyl-2,2,5,5-tetramethylpyrrolidine HCl (CMH, Axxora) as described previously. Superoxide in PAEC was trapped by incubating PAEC with 20 μl of CMH stock solution (20 mg/ml) for 1 h, followed by trypsinization and centrifugation at 500 g. The cell pellet was suspended in 35 μl DPBS and loaded into a capillary tube which was then analyzed with a MiniScope MS200 EPR machine (Magnettech, Berlin, Germany). Pre-incubating cells or tissue with 100 μM ethylisothiourea (ETU, Sigma-Aldrich) for 30 min followed by incubation with CMH measured NOS-derived superoxide. EPR spectra were analyzed using ANALYSIS v.2.02 software (Magnettech). Differences between levels of samples incubated in the presence and absence of ETU were used to determine NOS-dependent superoxide generation.

[2] = system: eNOS phosphorylation at T495; assay: Western blot of pT495-eNOS in PAEC; type: cell-based, ovine; conditions: PMA 100 nM, 10, 30 and 60 minutes
Protocol: as §1
Protein extracts were prepared using lysis buffer (50 mM Tris-HCl, pH 7.6, 0.5% Triton X-100, 20% glycerol) containing HALT™ protease inhibitor cocktail (Pierce Laboratories, Rockford, IL). The extracts were then subjected to centrifugation (15,000 g for 15 min at 4° C.). Supernatant fractions were assayed for protein concentration using the Bradford reagent (Bio-Rad, Richmond, CA) then used for Western blot analyses. Protein extracts (25-50 μg) were separated on Long-Life 4-20% Tris-SDS-Hepes gels and electrophoretically transferred to IMMUNO-BLOT™ PVDF membrane (Bio-Rad Laboratories, Hercules, CA) Immunoblotting was then carried out using the appropriate antibodies in Tris-base buffered saline with 0.1% Tween 20 and 5% nonfat milk. After washing, the membranes were probed with horseradish peroxidase-conjugated goat antiserum to rabbit or mouse. Reactive bands were visualized using chemiluminescence (Super Signal West Femto; Pierce, Rockford, IL) on a LI-COR Odyssey image station (Lincoln, NE). Bands were quantified using LI-COR Image Station software. Loading was normalized by reprobing the membranes with an antibody specific to β-actin.

TRPV4 = biological target: T1, TRPV4 (Mus musculus, UniProt Q9EPK8); conditions: mice treated with the TRPV4 antagonist; literature (Yin 2016); only protective if given preventatively; cited from earlier work
T1 construct: host or cells: mice (lung), cited studies
T1 sequence (Q9EPK8 whole entry): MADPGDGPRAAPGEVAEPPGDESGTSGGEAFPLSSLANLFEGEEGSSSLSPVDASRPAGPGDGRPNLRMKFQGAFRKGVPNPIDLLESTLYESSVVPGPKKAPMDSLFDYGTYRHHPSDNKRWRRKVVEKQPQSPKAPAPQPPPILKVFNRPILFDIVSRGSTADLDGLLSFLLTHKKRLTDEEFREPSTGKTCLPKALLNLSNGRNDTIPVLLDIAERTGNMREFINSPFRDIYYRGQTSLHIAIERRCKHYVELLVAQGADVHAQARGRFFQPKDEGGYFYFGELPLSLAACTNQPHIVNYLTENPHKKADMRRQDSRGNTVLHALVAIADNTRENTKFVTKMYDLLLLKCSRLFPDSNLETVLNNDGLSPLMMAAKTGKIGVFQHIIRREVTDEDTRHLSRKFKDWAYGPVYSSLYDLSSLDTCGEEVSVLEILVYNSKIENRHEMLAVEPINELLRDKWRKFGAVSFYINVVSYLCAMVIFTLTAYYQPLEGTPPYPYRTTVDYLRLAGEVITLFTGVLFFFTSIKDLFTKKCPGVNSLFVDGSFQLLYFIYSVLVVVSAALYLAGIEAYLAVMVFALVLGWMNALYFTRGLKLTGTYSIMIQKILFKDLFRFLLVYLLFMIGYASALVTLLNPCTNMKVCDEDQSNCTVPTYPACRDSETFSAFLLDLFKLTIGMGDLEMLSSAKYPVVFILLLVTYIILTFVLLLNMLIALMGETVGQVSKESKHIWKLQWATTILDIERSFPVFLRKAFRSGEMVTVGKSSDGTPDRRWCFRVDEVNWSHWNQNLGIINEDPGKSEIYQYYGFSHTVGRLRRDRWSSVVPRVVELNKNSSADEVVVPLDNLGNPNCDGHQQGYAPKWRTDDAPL

| Compound | mitochondrial redistribution of eNOS [1] | mitochondrial bioenergetics (OCR, reserve and maximal respiratory capacities) (PAEC) | eNOS uncoupling (NOS derived superoxide) (NOS-derived superoxide) | pT495-eNOS levels [2] | protection against acid-induced ALI (TRPV4) |
| --- | --- | --- | --- | --- | --- |
| CCCCCCCCCCCCCC(=O)O[C@@H]1[C@@H](C)[C@@]2(O)[C@@H](C=C(CO)C[C@]3(O)C(=O)C(C)=C[C@@H]23)[C@@H]2C(C)(C)[C@]12OC(C)=O [PMA, Phorbol 12-myristate 13-acetate] | induced the mitochondrial redistribution of eNOS | disruption of mitochondrial bioenergetics | eNOS uncoupling | increases in pT95-eNOS levels |  |
| O=C(NC1(c2ccccc2)CC1)c1c(CN2CCC(N3CCCCC3)CC2)c(-c2cccc(C(F)(F)F)c2)nc2cc(Br)ccc12 [GSK2193874] |  |  |  |  | protected against acid-induced ALI |
